Reference: patent US20230233617A1, “METHODS FOR DIFFERENTIATING STEM CELLS INTO DOPAMINERGIC PROGENITOR CELLS” (JZ CELL TECHNOLOGIES AB, priority 2020, published 2023)
“Also recorded” adds a separate entry of the source.

Assays:
hPSC-derived NSCs = assay: Ventral regional identity of hPSC-derived NSCs at 9 DDC in dSMADi+SAG conditions (NKX2.1, LMX1A, PHOX2B, NKX2.2); type: cell-based, human; conditions: for identity imposed by RA analogue with inhibition of CYP26 activity: 500 nM analogue for 48-hours plus 500 nM R115866, 9 DDC; for identity imposed by RA analogue: 500 nM for 48-hours; for identity imposed by RA analogue / identity of NSCs: dSMADi+SAG; for identity imposed by RA analogue / identity of NSCs / identity of cells after inhibiting CYP26 activity: 9 DDC
CYP26 = conditions: cited from earlier work
β-catenin = assay: β-CATENIN nuclear levels in cultures at 2 DDC; type: cell-based, human; conditions: dSMADi+SAG
Description: FIG. 2: Specification of NSC with ventral midbrain identity using RA and SHH signaling. (a) Schematic of hPSCs differentiation with timeline of treatment with RA and activator of SHH signaling (SAG) (top). Immunocytochemistry for indicated markers at 9 DDC in cultures differentiated in dSMADi+SAG-condition and pulsed with RA for 1-, 2- or 4-days (bottom). (b) Relative gene expression (FPKM) of indicated genes in 9 DDC cultures differentiated in dSMADi+SAG-conditions and treated with RA for the indicated time. (c) Heatmap and hierarchical clustering of differentially expressed genes of 9 DDC cultures differentiated in dSMADi+SAG-condition and treated with RA for the indicated time. (d) Schematic of gene expression profiles defining distinct ventral progenitors in the diencephalon (Di), midbrain (MB) and hindbrain (HB) positions. (e) Expression of genes associated with the indicated regional progenitors at 14 DDC in cultures differentiated in dSMADi+SAG+RA^2D condition. (f) Immunocytochemistry for β-CATENIN (left) and boxplots of β-CATENIN nuclear levels (right) in cultures at 2 DDC differentiated in dSMADi+SAG-condition (control) and treated with RA or CHIR99021. Boxplot, whiskers define 5th and 95th percentile. Asterisks, Student t test; **p<0.01, ***p<0.001. (g) Immunocytochemistry for the indicated markers in cultures at 14 DDC differentiated in dSMADi+SAG+RA^2D condition. […]

[1] = system: hPSC-derived vMB progenitors; assay: Neurogenesis and mDA neuron yield in differentiating hPSC cultures (HuCD, TuJ1, TH, GABA immunocytochemistry, electrophysiology); type: cell-based, human; conditions: with SAG
Description: A unique feature of mDA neurons is that they originate from initially non-neuronal floor plate (FP) cells at the ventral midline of the MB, and progenitors must acquire neuronal potential prior to differentiation into neurons^30,44. Few markers distinguish between these states, but downregulation of SHH and upregulation pro-neural bHLH proteins over time correlate with this transition^44. […] In RA^2D+SAG cultures at 21 DDC, ˜30% of DAPI^+ cells accounted for HuCD^+ neurons (FIG. 4d) and many of these had initiated expression of TH (FIG. 4c). When we instead used CHIR99021+SAG to specify LMX1A^+/NKX2.1^− vMB progenitors (FIG. 3b), cells initiated neurogenesis at around 17 DDC (FIG. 4c, d) which is consistent with previous studies^9,13. At 21 DDC, HuCD^+ neurons constituted ˜10% of total cells and few neurons expressed TH (FIG. 4c, d).
TH^+ neurons acquired a progressively more advanced neuronal morphology with a progressive outgrowth of TH^+ axonal processes in RA^2D+SAG cultures between 30-45 DDC (FIG. 4e, g, h; FIG. 8f (Supplementary FIG. 2f)). TH^+ neurons expressed mDA neuron markers LMX1A, LMX1B, FOXA2, NURR1, and OTX2 at 30-35 DDC (FIG. 4e). […] TH^+ neurons also expressed the mature neuronal marker SYNAPTOPHYSIN and the monoaminergic marker VMAT2 (FIG. 40. A subset of cells expressed GIRK2 or CALBINDIN indicating the presence of both A9- and A10-like subtypes of mDA neurons^45 (FIG. 4f). At 35 DDC, ˜80% of neurons expressed TH^+ which corresponded to ˜65% of total DAPI^+ cells (FIG. 4i, j). ˜10% of neurons expressed GABA (FIG. 4i, j), and some of these co-expressed TH (FIG. 10c (Supplementary FIG. 4c)). Only rare neurons expressing 5-HT or the MN marker PERIPHERIN were detected (FIG. 4i, j). High performance liquid chromatography (HPLC) analyses at 42 DDC established that neurons produced and released dopamine (FIG. 4k, I) but not serotonin (5-HT) or noradrenaline (NA) (FIG. 4k). […] Very few cells expressed Ki67 or phospho-histone H3 at 35-40 DDC indicating low mitotic activity after long-term culturing of cells (FIG. 4i). Functional maturation of mDA neurons in vitro can be monitored by determining the time when hPSC-derived mDA neurons acquire spontaneous action potentials, evoked action potentials and voltage-dependent Na^+ and K^+ currents, and these traits were previously reported to be attained after ˜60 days of culture of FACS-enriched mDA neurons (25+36 days: before/after sorting) using current state-of-the-art protocols^7. […] Neurons showing both spontaneous (FIG. 4m) and evoked action potentials (FIG. 4n) could be recorded at 40 DDC.
80-90% confluent PSCs cultures were rinsed twice with PBS, treated with EDTA (0.5 mM in PBS) for 5-7 min, and resuspended into single cell suspension in PBS. Cells were spin down at 400 g and resuspended in N2B27 medium (DMEM/F12: Neurobasal (1:1), 0.5×N2 and 0.5×B27 (plus vitamin A) supplements, 1×nonessential amino acids, 1% GlutaMAX, 55 μM β-mercaptoethanol-all from Thermo Fisher Scientific) containing 5 μM SB431542 (Miltenyi Biotech) and 2.5 μM DMH1 (Santa Cruz Biotech) (dual SMAD inhibition), and 10 μM ROCK inhibitor (for the first 48 hours after seeding). Cells were seeded on VTN (2 μg/cm^2) and Fibronectin (FN) (2 μg/cm^2) (Sigma) coated surface at a density of 60,000-80,000 cells/cm^2 for RA- and RA-analogues based experiments, and 20,000 cells/cm^2 for CHIR99021 experiments. SAG1.3 (Santa Cruz Biotechnology), CHIR99021 (Miltenyi Biotech), all-trans RA, 9-cis RA, 13-cis RA, Tazarotenic acid, R115866 (all Sigma), EC23 (Amsbio) were used at concentrations and time points described in the result section. For mDA neuron differentiation (see schematic drawing FIG. 4) neural progenitors were mechanically dissociated at 9 DDC with Stem Cell Passaging Tool (Thermo Fisher Scientific) and seeded at 1:3 ratio in N2B27 medium containing 10 μM ROCK inhibitor (for first 48 hours after dissociation) on VTN and FN coated surfaces. […]

[2] = system: hPSC-derived ventral midbrain dopaminergic progenitors; assay: Specification of caudal midbrain identity (EN1 immunocytochemistry); type: cell-based, human; conditions: RA^2D+SAG plus 5 μM CHIR99021 between 4-9DDC
Experimental: (a) (a) Immunocytochemical analysis of ventral MB progenitor identities at 14 DDC. […] Nuclei of cells visualized with DAPI staining. (b) Immunocytochemistry of dopaminergic neuron marker TH and caudal midbrain marker EN1 expression in 40 DDC cultures differentiated in indicated conditions.
Cells were fixed for 12 min at room temperature (RT) in 4% paraformaldehyde in PBS, rinsed 3 times in PBST (PBS with 0.1% Triton-X100), and blocked for 1 hour at RT with blocking solution (3% FCS/0.1% Triton-X100 in PBS). Cells were then incubated with primary antibodies overnight at 4° C., followed by incubation with fluorophore-conjugated secondary antibodies for 1 hour at RT. Both primary and fluorophore-conjugated secondary antibodies were diluted in blocking solution. Primary antibodies used are listed in Supplementary Table 1. Appropriate Alexa (488, 555, 647)-conjugated secondary antibodies (Molecular Probes) were used.
Mechanisms underlying specification of midbrain dopamine neuron subtypes remains poorly resolved, but is likely to involve sub-patterning of ventral midbrain dopaminergic progenitors along the mediolateral and rostro-caudal axes of the midbrain (Brignani, S, and Pasterkamp, R. J., Front. Neuroanat. 11, 1-18 (2017)). WNT1 signaling emanating from the isthmic organizer at the midbrain-hindbrain boundary establish polarity of midbrain progenitors along the rostro-caudal axis by inducing a caudal^HIGH-to-rostral^LOW expression gradient of the homeodomain proteins EN1 and EN2 (Wurst, W. and Bally-Cuif, L. Nat. Rev. Neuroscience 2, 99-108 (2001)).

## CC1=C(/C=C/C(C)=C\C=C\C(C)=C\C(=O)O)C(C)(C)CCC1 [9-cis RA, 9-cis-Retinoic acid]
hPSC-derived NSCs
  identity imposed by RA analogue with inhibition of CYP26 activity: shift into a PHOX2B^+ HB identity
  identity imposed by RA analogue: LMX1A^+/NKX2.1^− vMB identity; also recorded: LMX1A+/NKX2.1− vMB identity
CYP26
  susceptibility to CYP26-mediated oxidation: substrates for CYP26-mediated oxidation

## CC1=C(/C=C/C(C)=C/C=C/C(C)=C\C(=O)O)C(C)(C)CCC1 [13-cis RA, 13-cis-Retinoic acid]
hPSC-derived NSCs
  identity imposed by RA analogue with inhibition of CYP26 activity: shift into a PHOX2B^+ HB identity
  identity imposed by RA analogue: LMX1A^+/NKX2.1^− vMB identity; also recorded: LMX1A+/NKX2.1− vMB identity
CYP26
  susceptibility to CYP26-mediated oxidation: substrates for CYP26-mediated oxidation

## Cc1c[nH]c(-c2cnc(NCCNc3ccc(C#N)cn3)nc2-c2ccc(Cl)cc2Cl)n1 [CHIR99021]
hPSC-derived NSCs; 1 μM
  identity of NSCs: LMX1A^+/NKX2.1^− identity
hPSC-derived NSCs; 0.8 and 0.6 μM
  identity of NSCs: diencephalic LMX1A^+/NKX2.1^+ character
hPSC-derived NSCs; 1.2 and 1.4 μM
  identity of NSCs: NKX2.2^+/LMX1A^− presumptive HB identity
β-catenin
  β-catenin in nuclei: translocation of β-catenin into nuclei
[1]; 21 DDC
  HuCD+ neurons as share of total DAPI+ cells: ~10%
[1]
  time of initiation of neurogenesis (first neurons): around 17 DDC
[2]; 14DDC
  identity of ventral midbrain progenitors (EN1): a majority of LMX1A^+/OTX2^+ cells also expressed EN1
[2]; 40DDC
  EN1 expression in TH+ dopamine neurons: a large fraction of TH^+ dopamine neurons expressed EN1

## CC1(C)CCC(C)(C)c2cc(C#Cc3ccc(C(=O)O)cc3)ccc21 [EC23]
hPSC-derived NSCs; 200 nM EC23, EC23^1D+SAG or EC23^2D+SAG, with or without inhibition of CYP26
  identity imposed by EC23: PHOX2B^+ HB-identity; also recorded: hindbrain identity
hPSC-derived NSCs; FIG. 9c titration
  EC23 concentration imposing a vMB-identity: 10 nM
hPSC-derived NSCs; reduced EC23 concentration
  duration of EC23 treatment required to induce LMX1A+/NKX2.1− vMB cells: 24 h
hPSC-derived NSCs; titration, relative to 200 nM, treatment for 24 hours
  reduction in concentration required for EC23 to induce LMX1A+/NKX2.1− vMB cells: 20 fold

## CCC(CC)C(c1ccc(Nc2nc3ccccc3s2)cc1)n1cncn1 (stereo not shown) [R115866]
hPSC-derived NSCs; 100 nM R115866, RA+SAG cultures
  identity of cells after inhibiting CYP26 activity: mix of LMX1A^+/NKX2.1^− vMB cells and PHOX2B^+ HB cells
hPSC-derived NSCs; 500 nM R115866 between 0-3 DDC, RA^1D+SAG or RA^2D+SAG cultures
  identity of cells after inhibiting CYP26 activity: PHOX2B^+ HB-identity
hPSC-derived NSCs; R115866 and SAG only (no RA)
  identity of cells after inhibiting CYP26 activity: did not suppress NKX2.1^+ FB-fate

## CNC1CCC(N(Cc2cccc(-c3ccncc3)c2)C(=O)c2sc3ccccc3c2Cl)CC1 (stereo not shown) [SAG]
hPSC-derived NSCs; dSMADi, SAG from day 0, 9 DDC
  SAG concentration for effective induction of vMB NSC identity: 50 nM

## CC1(C)CCSc2ccc(C#Cc3ccc(C(=O)O)cn3)cc21 [tazarotenic acid]
hPSC-derived NSCs
  identity imposed by RA analogue with inhibition of CYP26 activity: shift into a PHOX2B^+ HB identity
  identity imposed by RA analogue: LMX1A^+/NKX2.1^− vMB identity; also recorded: LMX1A+/NKX2.1− vMB identity
CYP26
  susceptibility to CYP26-mediated oxidation: substrates for CYP26-mediated oxidation
